The source of these data is ChEMBL document CHEMBL1201862, “PubChem BioAssay data set” (2004).

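A five-concentration, 48-hour dose response in 96-well plates underlies each endpoint, interpolated linearly between surrounding concentrations. At the GI50, growth is halved.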 Activity calls are given as the source filed them. Cut-off read from the data, not from the text of the source: active = GI50 up to about 1.1 µM and inactive = higher.

Some test systems named below: DU-145; SW-620; EKVX; LOX IMVI; SNB-19; NCI/ADR-RES; A498; CCRF-CEM; M14; Hs-578T; HCC 2998; SN12C; HCT-15; UACC-62; COLO 205; CAKI-1; OVCAR-3; KM12; MDA-MB-231; T47D.
Common to all, as to test: NCI anticancer screen, dose series, 48 h

For the molecule `CC[C@@H]1CC[C@@H]2[C@H](CC[C@]3(C)[C@@H](OS(=O)(=O)c4ccc(C)cc4)CC[C@@H]23)[C@H]1COS(=O)(=O)c1ccc(C)cc1`, the GI50 in the assay on DU-145, with SW-620, in the assay on EKVX, in the assay on LOX IMVI, with SNB-19 and in the assay on NCI/ADR-RES was > 100 µM (inactive) each time. The GI50 in the assay on A498, in the assay on CCRF-CEM, in the assay on M14, in the assay on Hs-578T, with HCC 2998 and with SN12C was > 100 µM (inactive) in each case. Further, in the assay with HCT-15, the GI50 is > 100 µM.

Take `Nc1ccc(/N=N/c2ccc(-c3ccc(/N=N/c4c(S(=O)(=O)O)cc5cc(S(=O)(=O)O)c(/N=N/c6ccc([N+](=O)[O-])cc6)c(N)c5c4O)cc3)cc2)c2cc(S(=O)(=O)O)ccc12`: the GI50 in the assay with SW-620, in the assay on EKVX, with UACC-62, in the assay with LOX IMVI, in the assay with SNB-19 and in the assay on A498 was > 100 µM (inactive) each time. The GI50 in the assay on CCRF-CEM, with M14, with COLO 205, with HCC 2998, with SN12C and with CAKI-1 was > 100 µM (inactive) throughout. Also, the GI50 in the assay with OVCAR-3 was > 100 µM (inactive); with HCT-15, > 100 µM; with KM12, > 100 µM (inactive).

Regarding `C/C=C/C[C@@H](C)[C@@H](O)[C@H]1C(=O)N[C@@H](CC)C(=O)N(C)CC(=O)N(C)[C@@H](CC(C)C)C(=O)N[C@@H](C(C)C)C(=O)N(C)[C@@H](CC(C)C)C(=O)N[C@@H](C)C(=O)N[C@H](C)C(=O)N(C)[C@@H](CC(C)C)C(=O)N(C)[C@@H](CC(C)C)C(=O)N(C)[C@@H](C(C)C)C(=O)N1C` [CYCLOSPORINE], the GI50 in the assay on SW-620 is 11.2 µM (inactive); in the assay with EKVX it was 10.4 µM (inactive); with UACC-62 it was 3.85 µM (inactive); in the assay on LOX IMVI it was 2.43 µM (inactive); in the assay on SNB-19, 10.5 µM (inactive); in the assay on A498, 4.95 µM (inactive). Besides, the GI50 in the assay with CCRF-CEM was 3.08 µM (inactive); in the assay with M14 it was 2.61 µM (inactive); with COLO 205, 1.77 µM (inactive); in the assay on HCC 2998 it was 2.15 µM (inactive); in the assay with SN12C, 3.95 µM (inactive); in the assay with CAKI-1 it was 6.98 µM (inactive). Also, the GI50 in the assay with OVCAR-3 is 3.8 µM (inactive); with HCT-15 it was 4.48 µM; in the assay with KM12, 5.94 µM (inactive).

On to `CCOC(=O)C1=C(C)N(NC(=O)Nc2ccccc2)C(=O)C1=P(c1ccccc1)(c1ccccc1)c1ccccc1`, for which the GI50 was 31 µM (inactive) with SW-620; 54.3 µM (inactive) in the assay on EKVX; 25.6 µM (inactive) in the assay on UACC-62; 41.2 µM (inactive) in the assay on LOX IMVI; > 100 µM (inactive) with SNB-19; 29.5 µM (inactive) in the assay with A498. Also, the GI50 in the assay on CCRF-CEM was 26.1 µM (inactive); with M14, 32.4 µM (inactive); in the assay on COLO 205 it was 25.3 µM (inactive); in the assay on HCC 2998, 47.2 µM (inactive); with SN12C, 28.1 µM (inactive); in the assay on CAKI-1, 44.7 µM (inactive). Besides, the results for the GI50 in the assay on OVCAR-3, with HCT-15 and in the assay on KM12 were 36.5 µM (inactive), 27.5 µM and > 10 µM (inactive), respectively.

For `CN(N=O)C(=O)NC(CCCCNC(=O)OCc1ccccc1)C(=O)OCc1ccccc1` (centres undefined), the GI50 in the assay on SW-620 is 27.6 µM (inactive); in the assay on EKVX, > 100 µM (inactive); with UACC-62, 13.7 µM (inactive); with LOX IMVI it was 17.4 µM (inactive); in the assay on SNB-19 it was > 100 µM (inactive); in the assay with A498, 55.5 µM (inactive). Besides, the GI50 with CCRF-CEM is 25 µM (inactive); with M14 it was 19.3 µM (inactive); in the assay with COLO 205, 23.7 µM (inactive); in the assay with HCC 2998, 23.4 µM (inactive); with SN12C, 17.6 µM (inactive); with CAKI-1 it was 21.4 µM (inactive). Besides, the GI50 was 25.3 µM (inactive) in the assay with OVCAR-3, 36 µM in the assay on HCT-15 and 48.2 µM (inactive) in the assay with KM12.

`CCCCc1c2c(nc3c1CCCC3O)CCCC2` (centres undefined): the GI50 was > 100 µM (inactive) in the assay on MDA-MB-231; > 100 µM (inactive) in the assay with DU-145; > 100 µM (inactive) in the assay on SW-620; 73.6 µM (inactive) in the assay with EKVX; > 100 µM (inactive) in the assay with UACC-62; > 100 µM (inactive) with SNB-19. Further, the GI50 in the assay on NCI/ADR-RES is > 100 µM (inactive); with A498, > 100 µM (inactive); in the assay on CCRF-CEM it was 72.6 µM (inactive); in the assay with M14 it was > 100 µM (inactive); in the assay with COLO 205, > 100 µM (inactive); in the assay with Hs-578T it was > 100 µM (inactive). For the same molecule, the GI50 with HCC 2998 was > 100 µM (inactive); in the assay with SN12C, > 100 µM (inactive); with CAKI-1 it was > 100 µM (inactive); in the assay with OVCAR-3 it was 71.8 µM (inactive); in the assay on HCT-15, > 100 µM; with KM12, > 100 µM (inactive).

Turning to `CCOc1ccc(/C=C2\NC(=S)N(/C=C3\C(=O)Oc4ccccc4C3=O)C2=O)cc1`, the GI50 is 20.4 µM (inactive) with MDA-MB-231; 22.4 µM (inactive) with DU-145; 37.8 µM (inactive) in the assay with SW-620; 24.7 µM (inactive) in the assay on EKVX; 17.5 µM (inactive) in the assay with UACC-62; 28.9 µM (inactive) in the assay on LOX IMVI. The GI50 in the assay on SNB-19 is 22.8 µM (inactive); with NCI/ADR-RES, 23.1 µM (inactive); in the assay on CCRF-CEM, 15.1 µM (inactive); with M14, 31.6 µM (inactive); in the assay on COLO 205, 15.2 µM (inactive); in the assay with Hs-578T, 23.4 µM (inactive). Besides, the GI50 was 32.1 µM (inactive) with HCC 2998; 19.7 µM (inactive) with SN12C; 23.9 µM (inactive) in the assay on CAKI-1; 21.1 µM (inactive) in the assay on OVCAR-3; 20.7 µM with HCT-15; 20.7 µM (inactive) in the assay with KM12.

For `CC(C)C(=O)N1Cc2cc(Cl)cc(Cl)c2OC(=O)c2ccccc21`, the GI50 was 33 µM (inactive) in the assay with SW-620; 27.7 µM (inactive) with EKVX; 19.8 µM (inactive) in the assay with UACC-62; 23.3 µM (inactive) in the assay on LOX IMVI; 35.2 µM (inactive) in the assay with SNB-19; 27.5 µM (inactive) with A498. For the same molecule, the GI50 with CCRF-CEM was 27 µM (inactive); with M14, 25.8 µM (inactive); in the assay with COLO 205, 59.3 µM (inactive); in the assay on HCC 2998, 28.4 µM (inactive); in the assay on SN12C it was 32.7 µM (inactive); in the assay on CAKI-1, 22.8 µM (inactive). The results for the GI50 in the assay on OVCAR-3, with HCT-15 and with KM12 were 22 µM (inactive), 27.5 µM and 32.8 µM (inactive), respectively.

`Cc1ccc(N2C(=O)C=C(C3=C(O)C(=O)N(c4ccc(C)cc4)C3=O)C2=O)cc1`: the GI50 in the assay on MDA-MB-231, in the assay on DU-145, in the assay on SW-620, in the assay with EKVX, with UACC-62 and with LOX IMVI was > 100 µM (inactive) in each case. Also, the GI50 in the assay on SNB-19, in the assay with NCI/ADR-RES, in the assay with A498, with CCRF-CEM, in the assay on M14 and in the assay on COLO 205 was > 100 µM (inactive) each time. Further, the GI50 in the assay on HCC 2998 is > 100 µM (inactive); in the assay on SN12C it was > 100 µM (inactive); with OVCAR-3, > 100 µM (inactive); with HCT-15, > 100 µM; with T47D, > 100 µM (inactive).

Turning to `COc1cc([C@@H]2c3cc4c(c(O)c3C[C@H]3COC(=O)[C@@H]32)OCO4)cc(OC)c1O`, the GI50 with SW-620 was < 0.02 µM (active); with EKVX, 0.0351 µM (active); in the assay on UACC-62, < 0.02 µM (active); with SNB-19, 0.796 µM (active); in the assay with NCI/ADR-RES, 0.0231 µM (active); with A498 it was < 0.02 µM (active). Moreover, the GI50 with M14 is 0.00278 µM (active); in the assay on COLO 205, 0.0281 µM (active); in the assay with HCC 2998 it was 0.0237 µM (active); in the assay on SN12C, 0.033 µM (active); in the assay with CAKI-1, < 0.02 µM (active).

For the molecule `Cn1c(=O)cc(NNc2ccc(Br)cc2)[nH]c1=O`, the GI50 is 14.6 µM (inactive) in the assay on MDA-MB-231; 6.55 µM (inactive) in the assay with DU-145; 4.5 µM (inactive) in the assay on SW-620; 16.5 µM (inactive) with EKVX; 2.11 µM (inactive) in the assay with LOX IMVI; 13.6 µM (inactive) in the assay on SNB-19. Moreover, the GI50 is 31.1 µM (inactive) with NCI/ADR-RES; 44.3 µM (inactive) with A498; 0.431 µM (active) in the assay on CCRF-CEM; 15.5 µM (inactive) with M14; 2.58 µM (inactive) with COLO 205; 3.88 µM (inactive) in the assay on Hs-578T. For the same molecule, the GI50 with HCC 2998 was 4.59 µM (inactive); with SN12C, 10.7 µM (inactive); in the assay with OVCAR-3 it was 3.99 µM (inactive); with HCT-15 it was 6.71 µM; with KM12, 2.24 µM (inactive).

For `Cc1cc(OC(=O)NCn2cc(-c3ccccc3)nn2)ccc1Cl`, the GI50 in the assay on MDA-MB-231 was > 100 µM (inactive); in the assay on DU-145 it was 68.7 µM (inactive); in the assay on SW-620 it was > 100 µM (inactive); in the assay on EKVX, > 100 µM (inactive); in the assay with LOX IMVI, 66.8 µM (inactive); in the assay with SNB-19 it was 91.2 µM (inactive). The GI50 in the assay on NCI/ADR-RES was 83.4 µM (inactive); in the assay with CCRF-CEM, 72.8 µM (inactive); in the assay on M14, 67.3 µM (inactive); with COLO 205, > 100 µM (inactive); in the assay on HCC 2998, 16.3 µM (inactive); with SN12C it was > 100 µM (inactive). Moreover, the GI50 in the assay with CAKI-1 was 83.2 µM (inactive); with HCT-15 it was 97.9 µM; with KM12, > 100 µM (inactive).
